Results reported in ChEMBL document CHEMBL1287764, “3-O-phosphate ester conjugates of 17-β-O-{1-[2-carboxy-(2-hydroxy-4-methoxy-3-carboxamido)anilido]ethyl}1,3,5(10)-estratriene as novel bone-targeting agents” (Bioorg Med Chem Lett, 2010).

tested on: Hydroxyapatite; test: Binding affinity to hydroxyapatite at 10 nM by UV-spectroscopy relative to tetracycline

Compound	RBA
CCCCOP(=O)(OCCCC)Oc1ccc2c(c1)CC[C@@H]1[C@@H]2CC[C@]2(C)[C@@H](OCCC(=O)Nc3ccc(OC)c(C(N)=O)c3O)CC[C@@H]12	100%
CCCCCCCCCCCCOP(=O)(OCCCCCCCCCCCC)Oc1ccc2c(c1)CC[C@@H]1[C@@H]2CC[C@]2(C)[C@@H](OCCC(=O)Nc3ccc(OC)c(C(N)=O)c3O)CC[C@@H]12	160%
CN(C)[C@@H]1C(O)=C(C(N)=O)C(=O)[C@@]2(O)C(O)=C3C(=O)c4c(O)cccc4[C@@](C)(O)[C@H]3C[C@@H]12	100%
CCCCC(CC)COP(=O)(OCC(CC)CCCC)Oc1ccc2c(c1)CC[C@@H]1[C@@H]2CC[C@]2(C)[C@@H](OCCC(=O)Nc3ccc(OC)c(C(N)=O)c3O)CC[C@@H]12 (stereo partly drawn)	180%
COc1ccc(NC(=O)CCO[C@H]2CC[C@H]3[C@@H]4CCc5cc(OP(=O)(OCC(C)C)OCC(C)C)ccc5[C@H]4CC[C@]23C)c(O)c1C(N)=O	180%
C[C@]12CC[C@@H]3c4ccc(O)cc4CC[C@H]3[C@@H]1CC[C@@H]2O	0%
COc1ccc(NC(=O)CCO[C@H]2CC[C@H]3[C@@H]4CCc5cc(OP(=O)(OCc6ccccc6)OCc6ccccc6)ccc5[C@H]4CC[C@]23C)c(O)c1C(N)=O	190%
COc1ccc(NC(=O)CCO[C@H]2CC[C@H]3[C@@H]4CCc5cc(OP(=O)(OC(C)C)OC(C)C)ccc5[C@H]4CC[C@]23C)c(O)c1C(N)=O	200%
